# Test system: stratum corneum
# Test: Desquamating power: count of corneocytes released from isolated stratum corneum discs after incubation with the test compound
# Assay type: cell-based
# Settings: 1 % by weight compound in PBS buffer + 0.1% Triton X100, pH 7.4, 37° C., 24 hours, with stirring
# Method: The desquamating power of the compound prepared in Example 1 above was studied. This test comprised counting the corneocytes released after incubating batches of stratum corneum, isolated by trypsin/heat from plastic surgery operations, in the presence of the test compound.
# Discs of stratum corneum 4 mm in diameter were cut out with a punch and placed at the bottom of a 96-well plate. Two different stratum corneum samples were used.
# A solution was prepared comprising 1 % by weight of compound of Example 1 in a PBS buffer supplemented at 0.1% with Triton X100. The pH of the solution was readjusted to 7.4.
# 50 microliters of test solution or of control solution (PBS buffer supplemented at 0.1% with Triton X100) were added to each well. The experiment was repeated three times. The mixture was incubated at 37° C., with stirring, for 24 hours.
# 10 microliters of solution were then collected and placed in a Mallassez cell. The corneocytes released were counted under a microscope.
# The following results were obtained, which express the mean, for the three trials, of the number of corneocytes released per microliter. The corneocyte fragments were not counted.
smiles,measurement,setting,value
CCCCCC1C(CC(=O)O)CCC1OC (racemic) [Compound of Example 1],"number of corneocytes released per microliter, mean (3 trials per sample), Sample No. 1","stratum corneum Sample No. 1, control 6 ± 1",17 ± 6 per microliter
same,"number of corneocytes released per microliter, mean (3 trials per sample), Sample No. 2","stratum corneum Sample No. 2, control 6 ± 2",16 ± 6 per microliter
